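Step 1: Grow cells in 96-well plates. Step 2: Expose to compound for 48 hours at 5 concentrations. Step 3: Interpolate endpoints linearly; if unreached, use highest concentration. Here, GI50 denotes the concentration required for 50% inhibition of growth. TGI: total growth inhibition.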
Legend:
Experiment in all cases: NCI tumour cell line growth inhibition, 48 h
[1] = tested on: ACHN renal
[2] = tested on: BT-549 breast
[3] = tested on: HCT-15 colon
[4] = tested on: NCI-H460 lung
[5] = tested on: OVCAR-3 ovarian
[6] = tested on: SF-295 CNS
[7] = tested on: SK-MEL-28 melanoma
[8] = tested on: SK-OV-3 ovarian
[9] = tested on: SN12C renal
[10] = tested on: U251 CNS

Compound	TGI [1] [µM]	TGI [2] [µM]	TGI [3] [µM]	TGI [4] [µM]	TGI [5] [µM]	TGI [6] [µM]	TGI [7] [µM]	TGI [8] [µM]	TGI [9] [µM]	TGI [10] [µM]	GI50 [1] [µM]	GI50 [3] [µM]	GI50 [4] [µM]	GI50 [5] [µM]	GI50 [6] [µM]	GI50 [7] [µM]	GI50 [8] [µM]	GI50 [9] [µM]	GI50 [10] [µM]	GI50 [2] [µM]
COc1cc(C=C2C(C)=NN(c3cccc(Cl)c3)C23SCC(=O)N3c2nc3ccccc3s2)ccc1O (stereo not drawn)	77.5	58.8	> 93.6	> 100	> 80.1	> 100	> 100	50.8	> 100	41.4	–	–	–	–	–	–	–	–	–	–
CNC(=O)OC(C)CN1c2ccccc2Sc2ccc(Cl)cc21 (stereo not drawn)	> 10	–	> 10	> 10	> 10	> 10	> 10	> 10	> 10	> 10	–	–	–	–	–	–	–	–	–	–
CCOC(=O)CSc1nc(N)c2c(-c3ccc(OC)c(OC)c3)c3c(nc2n1)CCCC3	> 100	> 100	> 100	> 100	> 100	> 100	> 100	> 100	> 100	> 100	–	–	–	–	–	–	–	–	–	–
COc1ccc2nc(-n3c(/C=C/c4ccccc4O)nc4ccccc4c3=O)sc2c1	> 100	> 100	> 100	> 100	> 100	> 100	> 100	> 100	–	> 100	–	–	–	–	–	–	–	–	–	–
CC[C@H]1C=CCC[C@@]2(C[C@@H]3CC[C@@H]4[C@H](C(=O)OCCCCCCCCCCCCCCCC(=O)O)[C@]5(CCC[C@@H](C)O5)NC(=[N+]34)N2)O1	1.89	6.9	7.77	1.12	5.83	2.09	5.3	11.8	7.93	0.903	–	–	–	–	–	–	–	–	–	–
Cn1c(=O)c2c(nc(-n3nc(-c4ccc(Cl)cc4)cc3N)n2C)n(C)c1=O	> 100	> 100	> 100	> 100	> 100	> 100	> 100	91	> 100	> 100	–	–	–	–	–	–	–	–	–	–
COc1ccc2nc(-c3ccc(-c4noc(-c5cc(OC)c(OC)c(OC)c5)n4)cc3)[nH]c2c1	> 100	–	13.3	22.5	12.9	38.3	27	64.8	31.3	4.88	28.2	1.49	4.6	4.25	15	9.59	25.3	13.2	1.68	–
CCCNC(=O)c1cc(NC(=O)c2cc(NC(=O)/C=C/c3ccccc3)c(OC)c(OC)c2)c(OC)c(OC)c1	36.8	53.4	> 100	82.5	17.9	11.2	67.7	25.1	0.879	13.9	–	–	–	–	–	–	–	–	–	–
ONc1ncnc2nc[nH]c12	> 100	–	> 100	> 100	> 100	> 100	> 100	–	–	> 100	–	–	–	–	–	–	–	–	–	–
CN(C)CC(=O)Nc1ccc(Cn2nnc3c2C(=O)c2nnn(Cc4ccc(NC(=O)CN(C)C)cc4)c2C3=O)cc1	1.23	–	–	1.2	0.132	–	–	0.222	–	0.361	0.335	–	0.167	0.0318	–	–	0.0949	–	0.183	–
N=C(N)c1ccc(-c2ccc(-c3cc(Cl)cc(Cl)c3)o2)nc1	3.36	–	3.46	3.63	3.39	3.63	3.59	3.51	3.16	3.31	1.81	1.8	1.9	1.88	1.92	1.8	1.95	1.62	1.76	–
CCC1C(C#N)=C(N)OC2=C1C(=O)CC(C)(C)C2 (stereo not drawn)	> 100	> 100	> 100	> 100	> 100	> 100	> 100	> 100	> 100	> 100	–	–	–	–	–	–	–	–	–	–
CC(=O)Nc1cc([As](=O)(O)O)ccc1O	> 100	> 100	> 100	> 100	> 100	> 100	> 100	> 100	> 100	> 100	–	–	–	–	–	–	–	–	–	–
CC#CC#C/C=C1/O[C@]2(CCC(OC(C)=O)CO2)[C@@H]2O[C@H]12 (stereo partly drawn)	60.8	50.4	42.8	41.8	> 100	> 100	–	> 100	51.9	39.1	–	–	–	–	–	–	–	–	–	–
COc1cccc(N=Cc2cc3cc(Br)ccc3nc2Cl)c1	–	> 50	> 50	> 50	> 50	> 50	> 50	> 50	> 50	–	–	–	–	–	–	–	–	–	–	–
CCCc1[nH]c(SCCCCCCCCSc2nc(-c3ccc(F)cc3)c(CCC)[nH]2)nc1-c1ccc(F)cc1	> 100	–	> 100	> 100	12.9	–	> 100	–	> 100	> 100	–	–	–	–	–	–	–	–	–	–
O=C(CCCCCCC(=O)Nc1ccc(N(CCCl)CCCl)cc1)NO	4.86	29.2	> 100	12.9	6.66	10.2	16.3	15.9	18.6	–	1.09	18.9	0.598	1.92	1.91	3.35	3.76	0.8	–	5.83

From PubChem BioAssay (NCI)
